Among the data in US11685734B2, “ATM kinase inhibitors and compositions and methods of use thereof” (CHDI Foundation, Inc., priority 2019, dated 2023) are IC50 values, retold here.

One experiment concerns the target cellular ATM activity (Homo sapiens (Human), UniProt Q13315). The experiment is described as follows: Inhibition of cellular ATM activity: etoposide-stimulated KAP1 phosphorylation in U20S cells. Type of experiment: cell-based. The note with it: 100 μM etoposide, 60 min, read-out: ATM CELL IC50.
The target in experiment [1] is Recombinant, full length human FLAG-tagged ATM (Homo sapiens (Human), UniProt Q13315). As to the kind of experiment: ATM ELISA for p53 S15 phosphorylation. It counts as biochemical. The note with it: 0.75 nM ATM, 25 nM p53, 10 μM ATP, 30 min at 20° C.; read-out: ATM BIO IC50. Put shortly: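 ELISA of p53 S15 phosphorylation by 0.75 nM full-length FLAG-ATM, with 25 nM myc-p53 and 10 μM ATP in HEPES pH 7.5 with Mg/Mn, 30 min at 20° C. Reactions were EDTA-stopped, captured on anti-myc and detected with anti-pS15/HRP-TMB at 450 nm.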
Chain of Recombinant, full length human FLAG-tagged ATM (Q13315 whole entry): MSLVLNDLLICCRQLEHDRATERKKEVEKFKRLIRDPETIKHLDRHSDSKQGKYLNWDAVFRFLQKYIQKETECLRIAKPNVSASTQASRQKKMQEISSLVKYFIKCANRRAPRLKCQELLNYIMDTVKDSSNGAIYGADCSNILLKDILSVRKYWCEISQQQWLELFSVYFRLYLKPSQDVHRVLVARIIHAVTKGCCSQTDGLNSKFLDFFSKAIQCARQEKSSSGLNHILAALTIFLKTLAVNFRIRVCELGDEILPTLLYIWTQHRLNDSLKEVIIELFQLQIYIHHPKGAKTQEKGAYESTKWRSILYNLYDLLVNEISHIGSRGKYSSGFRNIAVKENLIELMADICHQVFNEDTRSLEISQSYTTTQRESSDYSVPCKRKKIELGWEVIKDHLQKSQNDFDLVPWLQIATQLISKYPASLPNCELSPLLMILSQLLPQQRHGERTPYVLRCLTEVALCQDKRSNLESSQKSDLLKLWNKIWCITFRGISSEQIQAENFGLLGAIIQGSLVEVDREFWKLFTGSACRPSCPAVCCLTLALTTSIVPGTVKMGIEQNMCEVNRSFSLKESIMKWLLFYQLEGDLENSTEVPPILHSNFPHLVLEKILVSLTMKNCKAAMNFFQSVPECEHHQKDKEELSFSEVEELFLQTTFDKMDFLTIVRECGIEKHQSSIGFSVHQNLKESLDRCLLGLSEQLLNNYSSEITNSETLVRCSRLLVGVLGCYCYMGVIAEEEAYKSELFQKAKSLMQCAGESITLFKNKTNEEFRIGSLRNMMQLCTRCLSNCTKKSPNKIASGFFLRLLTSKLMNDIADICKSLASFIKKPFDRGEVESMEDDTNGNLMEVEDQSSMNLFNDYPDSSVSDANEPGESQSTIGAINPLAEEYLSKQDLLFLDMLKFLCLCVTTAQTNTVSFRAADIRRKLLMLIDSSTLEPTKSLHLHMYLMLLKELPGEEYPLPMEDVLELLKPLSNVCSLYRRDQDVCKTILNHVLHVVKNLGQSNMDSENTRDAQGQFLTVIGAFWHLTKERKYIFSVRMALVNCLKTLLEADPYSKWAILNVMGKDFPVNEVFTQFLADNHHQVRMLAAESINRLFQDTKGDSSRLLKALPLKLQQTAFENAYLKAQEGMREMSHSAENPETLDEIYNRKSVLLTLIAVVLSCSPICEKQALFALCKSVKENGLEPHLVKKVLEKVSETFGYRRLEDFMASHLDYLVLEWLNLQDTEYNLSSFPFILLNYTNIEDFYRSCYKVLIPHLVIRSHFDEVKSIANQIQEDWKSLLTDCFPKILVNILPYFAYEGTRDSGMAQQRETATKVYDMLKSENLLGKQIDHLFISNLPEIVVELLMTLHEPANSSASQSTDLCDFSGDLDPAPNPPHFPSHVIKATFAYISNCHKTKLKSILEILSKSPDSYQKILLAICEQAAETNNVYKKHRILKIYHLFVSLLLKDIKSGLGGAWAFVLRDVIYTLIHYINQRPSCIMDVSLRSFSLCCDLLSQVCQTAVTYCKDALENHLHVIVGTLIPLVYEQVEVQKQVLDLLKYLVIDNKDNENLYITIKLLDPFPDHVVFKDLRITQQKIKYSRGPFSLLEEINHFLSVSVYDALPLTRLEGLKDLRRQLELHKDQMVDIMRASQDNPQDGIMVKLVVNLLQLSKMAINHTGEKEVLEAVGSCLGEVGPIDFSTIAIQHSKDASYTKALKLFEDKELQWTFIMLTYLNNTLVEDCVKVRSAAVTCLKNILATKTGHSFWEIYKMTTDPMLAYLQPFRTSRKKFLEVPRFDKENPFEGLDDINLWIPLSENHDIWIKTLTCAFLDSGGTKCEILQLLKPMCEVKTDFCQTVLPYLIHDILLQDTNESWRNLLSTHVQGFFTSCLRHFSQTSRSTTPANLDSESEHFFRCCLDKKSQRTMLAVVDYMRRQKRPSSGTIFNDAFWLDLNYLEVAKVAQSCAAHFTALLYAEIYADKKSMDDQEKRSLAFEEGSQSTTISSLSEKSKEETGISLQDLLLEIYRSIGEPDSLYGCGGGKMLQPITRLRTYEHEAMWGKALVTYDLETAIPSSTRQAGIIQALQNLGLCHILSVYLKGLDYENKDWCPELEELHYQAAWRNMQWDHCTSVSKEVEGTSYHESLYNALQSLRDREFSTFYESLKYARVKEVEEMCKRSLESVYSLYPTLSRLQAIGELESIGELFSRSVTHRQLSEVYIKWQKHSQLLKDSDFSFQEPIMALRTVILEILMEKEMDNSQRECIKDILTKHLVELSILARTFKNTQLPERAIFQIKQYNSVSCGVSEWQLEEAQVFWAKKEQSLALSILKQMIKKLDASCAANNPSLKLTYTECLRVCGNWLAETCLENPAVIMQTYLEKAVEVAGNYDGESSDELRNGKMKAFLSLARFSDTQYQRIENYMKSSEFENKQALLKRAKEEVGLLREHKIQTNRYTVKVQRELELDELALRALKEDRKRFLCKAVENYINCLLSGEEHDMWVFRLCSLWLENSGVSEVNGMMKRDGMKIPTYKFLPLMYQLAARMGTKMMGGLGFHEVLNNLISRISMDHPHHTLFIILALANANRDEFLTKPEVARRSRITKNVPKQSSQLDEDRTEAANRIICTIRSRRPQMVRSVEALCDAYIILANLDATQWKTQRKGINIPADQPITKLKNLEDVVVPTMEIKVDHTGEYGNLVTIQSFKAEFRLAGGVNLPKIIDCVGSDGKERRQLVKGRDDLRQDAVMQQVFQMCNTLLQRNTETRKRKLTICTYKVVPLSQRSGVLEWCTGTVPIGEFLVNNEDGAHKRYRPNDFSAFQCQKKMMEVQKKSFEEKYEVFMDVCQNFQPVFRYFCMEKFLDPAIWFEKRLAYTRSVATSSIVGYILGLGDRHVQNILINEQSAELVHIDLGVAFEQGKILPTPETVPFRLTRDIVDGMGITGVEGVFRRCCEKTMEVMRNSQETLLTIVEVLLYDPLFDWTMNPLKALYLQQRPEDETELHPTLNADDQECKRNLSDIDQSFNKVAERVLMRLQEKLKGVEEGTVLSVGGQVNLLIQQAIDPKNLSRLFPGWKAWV
(An ELISA detects its analyte on a solid surface through an enzyme-linked reagent.)

Chain of cellular ATM activity (Q13315 whole entry): as above

By IC50 is commonly meant the concentration that gives 50% inhibition. Take `Cc1ccccc1C[C@H]1CCCCCN1c1nc(N2CCOCC2)cc(=O)[nH]1` [Example 181, (R)-2-(2-(2-methylbenzyl)azepan-1-yl)-6-morpholinopyrimidin-4(3H)-one]: the IC50 at cellular ATM activity amounted to 548 nM; in experiment [1], 1.2 nM.
Turning to `Cc1ccc(C[C@H]2CCCN2c2nc(N3CCOCC3)cc(=O)[nH]2)cc1` [Example 186], the IC50 on cellular ATM activity is 852 nM; in experiment [1] it was 14.4 nM.
With `Cc1cc(C[C@H]2CCCN2c2nc(N3CCOCC3)cc(=O)[nH]2)cc(C)n1` [Example 188], the IC50 came to 1060 nM at cellular ATM activity and 28.7 nM in experiment [1].
For `O=c1cc(N2CCOCC2)nc(N2CCC[C@@H]2Cc2ccc(Cl)c(Cl)c2)[nH]1` [Example 190] the same measures were 939 nM and 4.2 nM.
For `O=c1cc(N2CCOCC2)nc(N2CCCC2Cn2cnc3ccccc32)[nH]1` (centres unmarked) [Example 192], the IC50 on cellular ATM activity worked out at 1340 nM; in experiment [1], 30 nM.
As to `O=c1cc(N2CCOCC2)nc(N2CCC[C@@H]2Cc2ccc(F)cc2)[nH]1` [Example 193], the IC50 turned out to be 598 nM on cellular ATM activity and 9.7 nM in experiment [1].
As for `CC(C)(c1ccccc1)[C@H]1CCCN1c1nc(N2CCOCC2)cc(=O)[nH]1` [Example 196], the IC50 at cellular ATM activity was 975 nM; in experiment [1], 46.9 nM.
For `COc1ccccc1C[C@H]1CCCCN1c1nc(N2CCOCC2)cc(=O)[nH]1` [Example 197], the results for the concentration for half-maximal inhibition (IC50) (at cellular ATM activity; in experiment [1]) were 711 nM and 14.9 nM, respectively.
Take `O=c1cc(N2CCOCC2)nc(N2CCCC[C@@H]2Cc2ccccc2)[nH]1` [Example 199]: the results for the IC50 (on cellular ATM activity; in experiment [1]) were 125 nM and 2.8 nM, respectively.
The corresponding values for `COc1ccccc1C[C@H]1CCCCCN1c1nc(N2CCOCC2)cc(=O)[nH]1` [Example 201] are 693 nM and 14.1 nM.
For `COc1cccc(C[C@H]2CCCCCN2c2nc(N3CCOCC3)cc(=O)[nH]2)c1` [Example 203] the same measures were 427 nM and 1.9 nM.
Take `O=c1cc(N2CCOCC2)nc(N2CCCCC[C@@H]2Cc2ccccc2Cl)[nH]1` [Example 205]: the figures for the IC50 (on cellular ATM activity; in experiment [1]) were 797 nM and 39.6 nM, respectively.
Regarding `O=c1cc(N2CCOCC2)nc(N2C[C@@H]3C[C@@H]3[C@@H]2Cc2ccc(F)cc2)[nH]1` [Example 207], the IC50 on cellular ATM activity was determined as 207 nM; in experiment [1], 4.4 nM.
As for `O=c1cc(N2CCOCC2)nc(N2C[C@H]3C[C@H]3[C@@H]2Cc2ccc(F)cc2)[nH]1` [Example 209], the IC50 at cellular ATM activity is 377 nM; in experiment [1] it was 8.9 nM.
On to `O=c1cc(N2CCOCC2)nc(N2C[C@@H]3C[C@@H]3[C@@H]2Cc2ccccc2)[nH]1` [Example 211], for which the IC50 at cellular ATM activity was found to be 446 nM; in experiment [1] it was 3.7 nM.
On to `O=c1cc(N2CCOCC2)nc(N2C[C@H]3C[C@H]3[C@@H]2Cc2ccccc2)[nH]1` [Example 213], for which the values for the IC50 (at cellular ATM activity; in experiment [1]) were 134 nM and 1.1 nM, respectively.
Take `C[C@@H]1CCN(c2nc(N3CCOCC3)cc(=O)[nH]2)[C@H]1Cc1ccccc1` [Example 215]: the IC50 came to 74 nM on cellular ATM activity and 1 nM in experiment [1].
In the case of `COc1ccccc1C[C@H]1[C@H](C)CCN1c1nc(N2CCOCC2)cc(=O)[nH]1` [Example 217], the IC50 at cellular ATM activity is 499 nM; in experiment [1], 7.1 nM.
The corresponding values for `O=c1cc(N2CCOCC2)nc(N2CCCCC[C@@H]2Cc2ccc(F)cc2)[nH]1` [Example 222] are 163 nM and 5.7 nM.
As for `O=c1cc(N2CCOCC2)nc(N2CCCCC[C@@H]2Cc2cccc(F)c2F)[nH]1` [Example 223], the values for the IC50 (on cellular ATM activity; in experiment [1]) were 512 nM and 26.3 nM, respectively.
`O=c1cc(N2CCOCC2)nc(N2CCCCC[C@@H]2Cc2cccc3c2OCC3)[nH]1` [Example 225]: the IC50 on cellular ATM activity was 260 nM; in experiment [1], 3.9 nM.
As for `COc1cc(F)ccc1C[C@H]1CCCCCN1c1nc(N2CCOCC2)cc(=O)[nH]1` [Example 228], the results for the IC50 (on cellular ATM activity; in experiment [1]) were 756 nM and 69.5 nM, respectively.
As for `COc1cccc(C[C@H]2CCCCCN2c2nc(N3CCOCC3)cc(=O)[nH]2)c1OC` [Example 230], the IC50 came to 881 nM at cellular ATM activity and 71.2 nM in experiment [1].
As to `COc1c(F)cccc1C[C@H]1CCCCCN1c1nc(N2CCOCC2)cc(=O)[nH]1` [Example 231], the results for the IC50 (at cellular ATM activity; in experiment [1]) were 1090 nM and 84 nM, respectively.
For `C[C@H]1CCCN(c2nc(N3CCOCC3)cc(=O)[nH]2)[C@@H](Cc2ccccc2)C1` [Example 233] the same measures were 327 nM and 1.2 nM.
The corresponding values for `C[C@H]1CCCN(c2nc(N3CCOCC3)cc(=O)[nH]2)[C@@H](Cc2ccc(F)cc2)C1` [Example 235] are 436 nM and 5.3 nM.
As for `COc1ccccc1C[C@H]1C[C@@H](C)CCCN1c1nc(N2CCOCC2)cc(=O)[nH]1` [Example 237], the IC50 on cellular ATM activity is 592 nM; in experiment [1] it was 35.6 nM.
For `COc1ccccc1CC1CC(F)(F)CCCN1c1nc(N2CCOCC2)cc(=O)[nH]1` (centres unmarked) [Example 239] the same measures were 2020 nM and 36.5 nM.
Take `CC1(C)CCCN(c2nc(N3CCOCC3)cc(=O)[nH]2)[C@@H](Cc2ccccc2)C1` [Example 242]: the IC50 came out at 9760 nM at cellular ATM activity and 84.5 nM in experiment [1].
For the compound `O=c1cc(N2CCOCC2)nc(N2CCCC(F)(F)C[C@@H]2Cc2ccccc2)[nH]1` [Example 244], the IC50 was 273 nM on cellular ATM activity and 10.2 nM in experiment [1].
Turning to `CC1(C)CCC[C@H](Cc2ccccc2)N(c2nc(N3CCOCC3)cc(=O)[nH]2)C1` [Example 245], the values for the IC50 (at cellular ATM activity; in experiment [1]) were 1240 nM and 17.3 nM, respectively.
The corresponding values for `O=c1cc(N2CCOCC2)nc(N2CCCCC[C@@H]2Cc2ccsc2)[nH]1` [Example 248] are 421 nM and 3.9 nM.
Turning to `C[C@@H](c1ccccc1)[C@@H]1CCCN1c1nc(N2CCOCC2)cc(=O)[nH]1` [Example 250, 6-morpholino-2-((S)-2-((S)-1-phenylethyl)pyrrolidin-1-yl)pyrimidin-4(3H)-one], the IC50 was 153 nM at cellular ATM activity and 5 nM in experiment [1].
As to `O=c1cc(N2CCOCC2)nc(N2CCC(F)(F)[C@@H]2Cc2ccccc2)[nH]1` [Example 253, (S)-2-(2-benzyl-3,3-difluoropyrrolidin-1-yl)-6-morpholinopyrimidin-4(3H)-one], the IC50 at cellular ATM activity worked out at 434 nM; in experiment [1] it was 11.3 nM.
As for `O=c1cc(N2CCOCC2)nc(N2CC[C@H](O)[C@@H]2Cc2ccccc2)[nH]1` [Example 255, 2-((2S,3S)-2-benzyl-3-hydroxypyrrolidin-1-yl)-6-morpholinopyrimidin-4(3H)-one], the IC50 on cellular ATM activity is 1260 nM; in experiment [1], 70.9 nM.
As to `CO[C@@H]1CCN(c2nc(N3CCOCC3)cc(=O)[nH]2)[C@H]1Cc1ccccc1` [Example 257, 2-((2S,3R)-2-benzyl-3-methoxypyrrolidin-1-yl)-6-morpholinopyrimidin-4(3H)-one], the half-inhibitory concentration (IC50) at cellular ATM activity is 411 nM; in experiment [1] it was 4 nM.
`O=c1cc(N2CCOCC2)nc(N2CC[C@@H](O)[C@@H]2Cc2ccccc2)[nH]1` [Example 258, 2-((2S,3R)-2-benzyl-3-hydroxypyrrolidin-1-yl)-6-morpholinopyrimidin-4(3H)-one]: the IC50 on cellular ATM activity amounted to 881 nM; in experiment [1] it was 6.8 nM.
